# Experimental data: US20220047530A1, “USE OF HORDENINE IN PREPARING DRUG FOR TREATING HYPOPHYSOMA” (Wuhan Third Hospital, priority 2019, published 2022)
# “Also recorded” adds a separate entry of the source.
# Assays:
# IL-β = test: ELISA of IL-β content in serum of rats with prolactinoma and adrenocorticotrophic hormone adenoma; type: in vivo, F344 rats (Rattus norvegicus); conditions: oral gavage 40, 20, 10 mg/kg once a day for 30 days; vs model group
# Text: (§1) 70 rats of the prolactinoma and adrenocorticotrophic hormone adenoma model as established in Step 1.1 “Establishment of Rattus norvegicus pituitary tumor model” and normal rats of the control group are used as samples.
# (§2) The 70 F344 rats are randomly divided into the normal group, operation group, model group, positive drug group (bromocriptine positive drug group), high-dose hordenine group, medium-dose hordenine group, and low-dose hordenine group, […]. Except rats in the normal group and the operation group, rats in the other groups are all made into rats with prolactinoma and adrenocorticotrophic hormone adenoma.
# (§3) Rats in the positive drug group are given an aqueous bromocriptine solution by gavage at a dose of 0.45 mg/kg. Rats in the high-, medium- and low-dose groups of an aqueous solution of hordenine are given an aqueous solution of hordenine by oral gavage at a dose of 40 mg/kg, 20 mg/kg, and 10 mg/kg, respectively. Rats in the normal group and the model group are given the same dose of distilled water. The administration is performed once a day for 30 days, and during this period of time, the rats are weighed every five days and the changes in body weight are recorded. […]
# (§4) The contents of PRL and IL-β in the serum of rats in each group are determined by ELISA according to the procedures in the ELISA kit instructions.
# prolactin (PRL) = test: ELISA of prolactin content in serum of rats with prolactinoma and adrenocorticotrophic hormone adenoma; type: in vivo, F344 rats (Rattus norvegicus); conditions: oral gavage 40, 20, 10 mg/kg once a day for 30 days; vs model group
# Text: as §1, §2, §3, §4
# SD rats [1] = test: Acute toxicity test (maximum dose method); type: in vivo; parameters: key to Inflammation score: 0: no or very little inflammation; 1: mild inflammation; 2: moderate inflammation; 3: severe inflammation; conditions: for ALB / ALP / ALT / AST / DBIL / TBA / TBIL / TP / γ-GT: serum
# Text: The experimental animals are 40 SPF-grade SD rats, provided by the Experimental Animal Center of China Three Gorges University (SCXK (E)) 2017-0012), wherein half are males, and half are females, each with a body weight of 150 g; the animal number is: No. 42010200001245, and the experimental unit license number is: SYXK (E) 2014-0080.
# (§5) 5 SPF-grade SD rats are randomly selected for toxicity prediction. Another 30 SPF-grade SD rats are randomly selected, wherein half are males, and half are females. After the purchase of the animals, the animals are adaptively fed for one week. The rats are fasted at the night before the experiment (without stopping the provision of water). During the experiment, the animals are randomly divided into 3 groups, which are the control group, the low-dose hordenine treatment group (0.035 g/kg), and the high-dose hordenine treatment group (0.07 g/kg).
# If no rats die in the pre-experiment, according to the acute toxicity test method, the maximum dose method is used, and hordenine is administered by gavage at a high dose of 0.07 g/kg and a low dose of 0.035 g/kg, respectively. The control group is given the same volume of saline. The administration is carried out twice a day (with an interval of no less than 4 hours) for 7 days, and the rats are fasted for 3 to 4 hours after the administration. The animals' immediate reactions are recorded, and the rats' appearance, behavior, activity, spirit, appetite, fur, breathing, weight, and the like, are carefully observed continuously for 14 days. The poisoning, death, and amounts of food and water consumed by the rats are recorded daily to determine the LD0 (0% mortality), LD100 (100% mortality) and the r value between the corresponding dose groups, and determine the LD50 (half lethal dose) value. For mice that die during the experiment, they should be dissected immediately to find the cause of their death. After the completion of the experiment, all survived rats are anesthetized by intraperitoneal injection of urethane, and immediately dissected to remove the heart, liver, spleen, lung, and kidney, which are observed with naked eyes for disease. And pathological sections of each organ are made: The tissues are fixed with a solution of 4% paraformaldehyde, conventionally sampled, dehydrated, embedded in paraffin, made into a slice (4 μm thick), stained with HE staining method, observed with an optical microscope, and photographed to roughly determine the target organs of toxicity. The serum of all experimental rats is used for the determination of routine blood biochemical indexes.
# TLR4/NF-κB/MAPK pathway = test: Western blot of pituitary protein expression in rats with prolactinoma and adrenocorticotrophic hormone adenoma; type: in vivo, F344 rats (Rattus norvegicus); conditions: once a day for 30 days by gavage; vs model group
# Text: as §1, §2
# Rats in the positive drug group are given an aqueous bromocriptine solution by gavage at a dose of 0.45 mg/kg. Rats in the high-, medium- and low-dose groups of an aqueous solution of hordenine are given an aqueous solution of hordenine by oral gavage at a dose of 40 mg/kg, 20 mg/kg, and 10 mg/kg, respectively. Rats in the normal group and the model group are given the same dose of distilled water. The administration is performed once a day for 30 days, and during this period of time, the rats are weighed every five days and the changes in body weight are recorded.
# Tissue extraction: The animals in each group are anesthetized, and the pituitary glands are removed as described in Section 2.2.2 of Part I, which are kept at −80° C. for later use.
# The protein expression of TLR4/NF-κB/MAPK pathway in rats in the treatment groups after the administration of hordenine is determined by Western blotting detection. The effect of hordenine on the expression of various proteins in the pituitary glands of rats with prolactinoma and adrenocorticotrophic hormone adenoma as determined by Western blot detection on is shown in FIG. 16.
# SD rats [2] = test: Toxicity prediction (pre-experiment); type: in vivo; conditions: gavage 0.07 g/kg twice a day
# Text: as §5
# 7 mg/ml of hordenine solution (the theoretical maximum solubility of hordenine is 7 mg/ml) is used for pre-experiment to observe the survival of rats. 5 SPF-grade SD rats are randomly selected, and hordenine is administered by gavage at the maximum dose of 0.07 g/kg, twice a day, with an interval of no less than 4 hours, 1 day of administration, and 7 days of observation. The poisoning, death, and amounts of food and water consumed by the rats are daily observed and recorded. For rats that die during the experiment, they are immediately dissected to find the cause of death. After the completion of the experiment, all dying rats will be dissected to remove the heart, liver, spleen, lung and kidney for visual observation, and pathological sections of each organ are made to roughly determine the target organ of toxicity.
# pituitary prolactinoma = conditions: patients; cited from earlier work
# [3] = gavage 0.07 and 0.035 g/kg twice a day for 7 days
# [4] = low-dose, high-dose vs control, P>0.05
# [5] = high-dose group (0.07 g/kg), female
# [6] = high-dose group (0.07 g/kg), male
# [7] = low-dose group (0.035 g/kg), female
# [8] = low-dose group (0.035 g/kg), male
smiles,measurement,setting,value
"CN(C)CCc1ccc(O)cc1 [hordenine, 4-(2-dimethylaminoethyl)phenol]",expression of IL-β in serum (ELISA),IL-β,significantly inhibit
same,expression of PRL in serum (ELISA),prolactin (PRL),significantly inhibit
same,Inflammation score,"SD rats [1]; Heart, female, high-dose group",0
same,Inflammation score,"SD rats [1]; Heart, female, low-dose group",0
same,Inflammation score,"SD rats [1]; Heart, male, high-dose group",0
same,Inflammation score,"SD rats [1]; Heart, male, low-dose group",0
same,Inflammation score,"SD rats [1]; Kidney, female, high-dose group",0
same,Inflammation score,"SD rats [1]; Kidney, female, low-dose group",0
same,Inflammation score,"SD rats [1]; Kidney, male, high-dose group",1
same,Inflammation score,"SD rats [1]; Kidney, male, low-dose group",0
same,Inflammation score,"SD rats [1]; Liver, female, high-dose group",0
same,Inflammation score,"SD rats [1]; Liver, female, low-dose group",0
same,Inflammation score,"SD rats [1]; Liver, male, high-dose group",0
same,Inflammation score,"SD rats [1]; Liver, male, low-dose group",0
same,Inflammation score,"SD rats [1]; Lung, female, high-dose group",1
same,Inflammation score,"SD rats [1]; Lung, female, low-dose group",0
same,Inflammation score,"SD rats [1]; Lung, male, high-dose group",1
same,Inflammation score,"SD rats [1]; Lung, male, low-dose group",0
same,Inflammation score,"SD rats [1]; Spleen, female, high-dose group",1
same,Inflammation score,"SD rats [1]; Spleen, female, low-dose group",0
same,Inflammation score,"SD rats [1]; Spleen, male, high-dose group",1
same,Inflammation score,"SD rats [1]; Spleen, male, low-dose group",0
same,general clinical signs,SD rats [1]; [3],no other adverse reactions
same,time to recovery of reduced activity after treatment,SD rats [1]; [3],about 2 hours
same,death of rats,SD rats [1]; gavage 0.07 g/kg and 0.035 g/kg twice a day for 7 days,No rats die; also recorded: no Rattus norvegicus death
same,lethal dose,"SD rats [1]; gavage, twice a day for 7 days",greater than 0.14 g/kg
same,"inflammation in the liver, spleen, and kidneys (pathological slices and biochemical experiments)",SD rats [1]; high-dose group,slight inflammation
same,kidney pathology,SD rats [1]; high-dose group,topical renal tubule interstitial connective tissue of rats in the high-dose group is proliferated
same,liver pathology (hepatocytes),SD rats [1]; high-dose group,extensive severe edema
same,lung pathology,SD rats [1]; high-dose group,"proliferated alveolar epithelial cells, and the alveolar walls are thickened"
same,spleen pathology (white pulp),SD rats [1]; high-dose group,topical lymphocytes in the white pulp of the spleen tissue are reduced
same,"tissue inflammatory response in the spleen, lung, and kidney",SD rats [1]; high-dose group,mild inflammatory response
same,kidney pathology,SD rats [1]; low-dose group,no obvious abnormality
same,liver pathology (hepatocytes),SD rats [1]; low-dose group,extensive edema
same,lung pathology,SD rats [1]; low-dose group,a large number of proliferated alveolar epithelial cells
same,spleen pathology (white pulp),SD rats [1]; low-dose group,"A small amount of lymphocytes exhibit necrosis, apoptosis"
same,tissue inflammatory response,SD rats [1]; low-dose group,no inflammatory response
same,liver function indexes,SD rats [1]; [4],no significant influence
same,renal function (blood BUN and CREA),SD rats [1]; [4],no significant influence
same,body weight,SD rats [1]; one week after the treatment,physiological increase
same,ALB,SD rats [1]; [5],32.45 ± 1.61 g/L
same,ALP,SD rats [1]; [5],195.08 ± 92.02 U/L
same,ALT,SD rats [1]; [5],51.25 ± 4.84 U/L
same,AST,SD rats [1]; [5],141 ± 12.04 U/L
same,DBIL,SD rats [1]; [5],7.23 ± 1.72 µmol/L
same,TBA,SD rats [1]; [5],27.57 ± 12.2 µmol/L
same,TBIL,SD rats [1]; [5],13.4 ± 5.73 µmol/L
same,TP,SD rats [1]; [5],55.45 ± 2.31 g/L
same,γ-GT,SD rats [1]; [5],3.62 ± 1.97 U/L
same,ALB,SD rats [1]; [6],29.5 ± 1.05 g/L
same,ALP,SD rats [1]; [6],278.67 ± 38.64 U/L
same,ALT,SD rats [1]; [6],51.47 ± 6.19 U/L
same,AST,SD rats [1]; [6],147.02 ± 17.42 U/L
same,DBIL,SD rats [1]; [6],6.14 ± 0.86 µmol/L
same,TBA,SD rats [1]; [6],41.43 ± 10.19 µmol/L
same,TBIL,SD rats [1]; [6],10.08 ± 2.69 µmol/L
same,TP,SD rats [1]; [6],49.11 ± 2.17 g/L
same,γ-GT,SD rats [1]; [6],3.9 ± 2.10 U/L
same,ALB,SD rats [1]; [7],31.88 ± 1.02 g/L
same,ALP,SD rats [1]; [7],229.4 ± 70.39 U/L
same,ALT,SD rats [1]; [7],43.54 ± 3.84 U/L
same,AST,SD rats [1]; [7],146.92 ± 24.61 U/L
same,DBIL,SD rats [1]; [7],9.03 ± 5.05 µmol/L
same,TBA,SD rats [1]; [7],23.77 ± 6.9 µmol/L
same,TBIL,SD rats [1]; [7],11.67 ± 5.16 µmol/L
same,TP,SD rats [1]; [7],53.54 ± 1.24 g/L
same,γ-GT,SD rats [1]; [7],3.92 ± 1.78 U/L
same,ALB,SD rats [1]; [8],28.86 ± 0.55 g/L
same,ALP,SD rats [1]; [8],328.05 ± 53.25 U/L
same,ALT,SD rats [1]; [8],40.46 ± 5.55 U/L
same,AST,SD rats [1]; [8],116.65 ± 18.14 U/L
same,DBIL,SD rats [1]; [8],6.81 ± 2.83 µmol/L
same,TBA,SD rats [1]; [8],36.99 ± 10.95 µmol/L
same,TBIL,SD rats [1]; [8],10.64 ± 4.19 µmol/L
same,TP,SD rats [1]; [8],47.34 ± 1.99 g/L
same,γ-GT,SD rats [1]; [8],2.59 ± 1.84 U/L
same,"pathological sections: toxicity to liver, spleen, lung and kidney",SD rats [1]; treatment groups,slight toxicity
same,"physiological conditions, weight changes, behavioral activities vs control group",SD rats [1]; treatment groups,no significant differences
same,expression of ATCH in pituitary glands (Western blot),TLR4/NF-κB/MAPK pathway,significantly reduce
same,expression of MAPK12 in pituitary glands (Western blot),TLR4/NF-κB/MAPK pathway,significantly reduce; also recorded: significantly down-regulated
same,expression of NF-kB protein in pituitary glands,TLR4/NF-κB/MAPK pathway,significantly down-regulated
same,expression of PRL in pituitary glands (Western blot),TLR4/NF-κB/MAPK pathway,significantly reduce
same,expression of STAT3 protein in pituitary glands,TLR4/NF-κB/MAPK pathway,significantly down-regulated
same,expression of TLR4 in pituitary glands (Western blot),TLR4/NF-κB/MAPK pathway,significantly reduce; also recorded: significantly down-regulated
same,expression of TNF-α in pituitary glands (Western blot),TLR4/NF-κB/MAPK pathway,significantly reduce
same,expression of caspase-1 protein in pituitary glands,TLR4/NF-κB/MAPK pathway,significantly down-regulated
same,time to recovery of reduced activity after treatment,SD rats [2]; 1 day,about 2 hours
same,death of rats within 7 days,"SD rats [2]; 1 day of administration, 7 days of observation",no rats die
same,general clinical signs,"SD rats [2]; 1 day, 7 days of observation",no other adverse reactions
CC(C)C[C@H]1C(=O)N2CCC[C@H]2[C@]2(O)O[C@](NC(=O)[C@@H]3C=C4c5cccc6[nH]c(Br)c(c56)C[C@H]4N(C)C3)(C(C)C)C(=O)N12 [bromocriptine],side effects,pituitary prolactinoma,mainly gastrointestinal reactions
